Measurements from patent US20260327214A1, “1,3,4-OXADIAZOLE DERIVATIVE COMPOUNDS AS HISTONE DEACETYLASE 6 INHIBITOR, AND USES THEREOF” (CHONG KUN DANG PHARMACEUTICAL CORP., priority 2022, published 2026).

Experiments:
[1] = molecular target: T1, human recombinant HDAC1 (Homo sapiens, UniProt Q13547); assay: HDAC1 enzyme activity inhibition test (HDAC Fluorometric Drug Discovery Kit); format: biochemical; conditions: 30° C., 60 minutes, 10 μM substrate
T1 construct: purchased Enzo Life Science BML-SE456
T1 sequence (Q13547 whole entry): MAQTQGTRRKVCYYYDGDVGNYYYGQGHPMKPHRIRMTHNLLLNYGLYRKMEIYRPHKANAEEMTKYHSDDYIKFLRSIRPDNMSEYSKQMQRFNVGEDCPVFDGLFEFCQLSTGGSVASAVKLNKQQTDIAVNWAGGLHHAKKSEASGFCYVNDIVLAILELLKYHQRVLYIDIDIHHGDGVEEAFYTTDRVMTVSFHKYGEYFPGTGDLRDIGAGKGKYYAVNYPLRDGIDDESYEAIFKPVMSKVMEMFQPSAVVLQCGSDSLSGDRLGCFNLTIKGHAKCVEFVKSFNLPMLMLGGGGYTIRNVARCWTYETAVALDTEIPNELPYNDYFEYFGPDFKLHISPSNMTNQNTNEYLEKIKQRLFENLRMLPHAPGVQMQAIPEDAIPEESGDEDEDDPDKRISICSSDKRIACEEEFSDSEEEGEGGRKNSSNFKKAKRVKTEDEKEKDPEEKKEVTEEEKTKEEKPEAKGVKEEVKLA
Summary of the method: (§1)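 IC50 derived from fluorescence (Ex 360, Em 460) following 30 min development with Developer II. Each reaction held 0.3 μg human recombinant HDAC1 or HDAC6, 10 μM Fluor de Lys SIRT1 substrate and 5-fold serially diluted compound, incubated 60 min at 30 °C.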

[2] = molecular target: T2, human recombinant HDAC6 (Homo sapiens, UniProt Q9UBN7); assay: HDAC6 enzyme activity inhibition test (HDAC Fluorometric Drug Discovery Kit); format: biochemical; conditions: for HDAC6 selectivity (fold): HDAC6 over HDAC1; for IC50: human recombinant HDAC6, same protocol as HDAC1
T2 construct: purchased Calbiochem 382180
T2 sequence (Q9UBN7 1-1215): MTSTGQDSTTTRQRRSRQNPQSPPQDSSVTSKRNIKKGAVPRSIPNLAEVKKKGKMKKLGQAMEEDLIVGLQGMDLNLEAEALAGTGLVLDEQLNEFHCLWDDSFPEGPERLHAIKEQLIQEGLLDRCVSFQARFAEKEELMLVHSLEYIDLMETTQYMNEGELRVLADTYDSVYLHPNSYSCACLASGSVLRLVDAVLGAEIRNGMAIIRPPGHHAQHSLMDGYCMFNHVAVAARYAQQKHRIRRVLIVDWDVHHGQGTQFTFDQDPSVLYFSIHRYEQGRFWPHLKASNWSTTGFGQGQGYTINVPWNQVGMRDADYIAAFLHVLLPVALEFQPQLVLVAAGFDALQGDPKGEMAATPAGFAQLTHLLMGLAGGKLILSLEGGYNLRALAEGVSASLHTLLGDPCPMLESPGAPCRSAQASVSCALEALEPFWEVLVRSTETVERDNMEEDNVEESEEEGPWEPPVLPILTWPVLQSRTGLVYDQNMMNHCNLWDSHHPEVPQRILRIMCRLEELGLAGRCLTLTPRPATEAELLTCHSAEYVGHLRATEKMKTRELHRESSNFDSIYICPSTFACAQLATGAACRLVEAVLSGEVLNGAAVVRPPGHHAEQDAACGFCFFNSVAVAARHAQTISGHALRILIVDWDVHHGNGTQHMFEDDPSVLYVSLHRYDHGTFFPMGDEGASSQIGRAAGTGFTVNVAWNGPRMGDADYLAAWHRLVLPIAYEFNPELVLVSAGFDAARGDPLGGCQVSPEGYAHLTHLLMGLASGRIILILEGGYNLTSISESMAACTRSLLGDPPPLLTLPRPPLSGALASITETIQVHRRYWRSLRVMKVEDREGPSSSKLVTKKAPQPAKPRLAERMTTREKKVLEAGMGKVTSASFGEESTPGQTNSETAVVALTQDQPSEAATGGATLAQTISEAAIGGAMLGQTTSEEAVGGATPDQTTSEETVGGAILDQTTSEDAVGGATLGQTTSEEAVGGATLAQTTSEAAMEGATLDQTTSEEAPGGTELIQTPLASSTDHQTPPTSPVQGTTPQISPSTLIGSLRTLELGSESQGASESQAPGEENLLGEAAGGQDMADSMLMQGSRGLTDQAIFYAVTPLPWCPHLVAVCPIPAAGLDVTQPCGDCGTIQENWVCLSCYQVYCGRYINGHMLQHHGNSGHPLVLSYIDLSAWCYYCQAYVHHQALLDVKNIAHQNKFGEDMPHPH
Summary of the method: as §1

Row | Compound | IC50 [1] [µM] | HDAC6 selectivity (fold) [2] [fold] | IC50 [2] [µM]
1 | FC(F)c1nnc(-c2ccc(Cn3nc(-c4ccc(CN5CC[C@H](F)C5)cc4)oc3=S)nc2)o1 [Compound 98, 3-[[5-[5-(difluoromethyl)-1,3,4-oxadiazol-2-yl]-2-pyridyl]methyl]-5-[4-[[(3S)-3-fluoropyrrolidin-1-yl]methyl]phenyl]-1,3,4-oxadiazol-2-thione] | > 50 | 552 | 0.0906
2 | FC(F)c1nnc(-c2ccc(Cn3nc(-c4cccc(CN5CCOCC5)c4)oc3=S)nc2)o1 [Compound 99, 3-[[5-[5-(difluoromethyl)-1,3,4-oxadiazol-2-yl]-2-pyridyl]methyl]-5-[3-(morpholinomethyl)phenyl]-1,3,4-oxadiazol-2-thione] | > 50 | 511 | 0.0978
3 | CCN1CCN(c2cccc(-c3nn(Cc4ccc(-c5nnc(C(F)F)o5)cn4)c(=S)o3)n2)CC1 [Compound 100, 3-[[5-[5-(difluoromethyl)-1,3,4-oxadiazol-2-yl]-2-pyridyl]methyl]-5-[6-(4-ethylpiperazin-1-yl)-2-pyridyl]-1,3,4-oxadiazol-2-thione] | > 50 | 2049 | 0.0244
4 | CC(C)N1CCN(c2cccc(-c3nn(Cc4ccc(-c5nnc(C(F)F)o5)cn4)c(=S)o3)n2)CC1 [Compound 101, 3-[[5-[5-(difluoromethyl)-1,3,4-oxadiazol-2-yl]-2-pyridyl]methyl]-5-[6-(4-isopropylpiperazin-1-yl)-2-pyridyl]-1,3,4-oxadiazol-2-thione] | > 50 | 2538 | 0.0197

Now from value to compound:

Row | IC50 [1] [µM] | HDAC6 selectivity (fold) [2] [fold] | IC50 [2] [µM] | Compound
5 | > 50 | 3185 | 0.0157 | CNCc1ccc(-c2nn(Cc3ccc(-c4nnc(C(F)F)o4)cn3)c(=S)o2)cc1 [Compound 92, 3-[[5-[5-(difluoromethyl)-1,3,4-oxadiazol-2-yl]-2-pyridyl]methyl]-5-[4-(methylaminomethyl)phenyl]-1,3,4-oxadiazol-2-thione]
6 | > 50 | 2890 | 0.0173 | FC(F)c1nnc(-c2ccc(Cn3nc(-c4ccc(CN5CCCC5)cc4)oc3=S)nc2)o1 [Compound 93, 3-[[5-[5-(difluoromethyl)-1,3,4-oxadiazol-2-yl]-2-pyridyl]methyl]-5-[4-(pyrrolidin-1-ylmethyl)phenyl]-1,3,4-oxadiazol-2-thione]
7 | > 50 | 1672 | 0.0299 | FC(F)c1nnc(-c2ccc(Cn3nc(-c4ccc(CN5CCCCC5)cc4)oc3=S)nc2)o1 [Compound 94, 3-[[5-[5-(difluoromethyl)-1,3,4-oxadiazol-2-yl]-2-pyridyl]methyl]-5-[4-(1-piperidylmethyl)phenyl]-1,3,4-oxadiazol-2-thione]
8 | > 50 | 574 | 0.0871 | FC(F)c1nnc(-c2ccc(Cn3nc(-c4ccc(CN5CCOCC5)cc4)oc3=S)nc2)o1 [Compound 95, 3-[[5-[5-(difluoromethyl)-1,3,4-oxadiazol-2-yl]-2-pyridyl]methyl]-5-[4-(morpholinomethyl)phenyl]-1,3,4-oxadiazol-2-thione]
9 | > 50 | 1208 | 0.0414 | CC1CCN(Cc2ccc(-c3nn(Cc4ccc(-c5nnc(C(F)F)o5)cn4)c(=S)o3)cc2)CC1 [Compound 96, 3-[[5-[5-(difluoromethyl)-1,3,4-oxadiazol-2-yl]-2-pyridyl]methyl]-5-[4-[(4-methyl-1-piperidyl)methyl]phenyl]-1,3,4-oxadiazol-2-thione]
10 | > 50 | 862 | 0.0581 | FC(F)c1nnc(-c2ccc(Cn3nc(-c4ccc(CN5CC[C@@H](F)C5)cc4)oc3=S)nc2)o1 [Compound 97, 3-[[5-[5-(difluoromethyl)-1,3,4-oxadiazol-2-yl]-2-pyridyl]methyl]-5-[4-[[(3R)-3-fluoropyrrolidin-1-yl]methyl]phenyl]-1,3,4-oxadiazol-2-thione]
